The values that follow come from patent US9238656B2, “Imidazo[4,5-b]pyridine derivatives as ALK and JAK modulators for the treatment of proliferative disorders” (priority 2012, dated 2016).

The target in assay [1] is baculovirus-expressed ALK (Homo sapiens, UniProt Q9UM73). In words: ALK kinase inhibition, TRF/ELISA. The format is biochemical. Particulars: read-out: ALK Potency. In outline: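 Eu-PT66 anti-phosphotyrosine TRF read-out measured phosphorylation of plate-bound GST-PLC-γ (coated at 10 μg/mL). The phosphorylation was driven by 30 ng/mL ALK for 15 minutes at 37° C.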
In general terms: In an ELISA, binding on a coated surface is turned into a signal by an enzyme label.

The target in assay [2] is baculovirus-expressed JAK2 kinase (Homo sapiens, UniProt O60674). In words: biochemical. Particulars: 0.2 μM ATP; read-out: JAK2 Potency. In outline: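 IC50 derived by variable-slope sigmoidal fit of percent inhibition against log compound concentration. Baculovirus-expressed JAK2 (15 ng/mL) phosphorylated a plate-bound biotinylated 15-mer peptide for 20 min at room temperature; detection by time-resolved fluorescence.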

Bounds are passed on as bounds.

baculovirus-expressed ALK, sequence (Q9UM73 19-1620): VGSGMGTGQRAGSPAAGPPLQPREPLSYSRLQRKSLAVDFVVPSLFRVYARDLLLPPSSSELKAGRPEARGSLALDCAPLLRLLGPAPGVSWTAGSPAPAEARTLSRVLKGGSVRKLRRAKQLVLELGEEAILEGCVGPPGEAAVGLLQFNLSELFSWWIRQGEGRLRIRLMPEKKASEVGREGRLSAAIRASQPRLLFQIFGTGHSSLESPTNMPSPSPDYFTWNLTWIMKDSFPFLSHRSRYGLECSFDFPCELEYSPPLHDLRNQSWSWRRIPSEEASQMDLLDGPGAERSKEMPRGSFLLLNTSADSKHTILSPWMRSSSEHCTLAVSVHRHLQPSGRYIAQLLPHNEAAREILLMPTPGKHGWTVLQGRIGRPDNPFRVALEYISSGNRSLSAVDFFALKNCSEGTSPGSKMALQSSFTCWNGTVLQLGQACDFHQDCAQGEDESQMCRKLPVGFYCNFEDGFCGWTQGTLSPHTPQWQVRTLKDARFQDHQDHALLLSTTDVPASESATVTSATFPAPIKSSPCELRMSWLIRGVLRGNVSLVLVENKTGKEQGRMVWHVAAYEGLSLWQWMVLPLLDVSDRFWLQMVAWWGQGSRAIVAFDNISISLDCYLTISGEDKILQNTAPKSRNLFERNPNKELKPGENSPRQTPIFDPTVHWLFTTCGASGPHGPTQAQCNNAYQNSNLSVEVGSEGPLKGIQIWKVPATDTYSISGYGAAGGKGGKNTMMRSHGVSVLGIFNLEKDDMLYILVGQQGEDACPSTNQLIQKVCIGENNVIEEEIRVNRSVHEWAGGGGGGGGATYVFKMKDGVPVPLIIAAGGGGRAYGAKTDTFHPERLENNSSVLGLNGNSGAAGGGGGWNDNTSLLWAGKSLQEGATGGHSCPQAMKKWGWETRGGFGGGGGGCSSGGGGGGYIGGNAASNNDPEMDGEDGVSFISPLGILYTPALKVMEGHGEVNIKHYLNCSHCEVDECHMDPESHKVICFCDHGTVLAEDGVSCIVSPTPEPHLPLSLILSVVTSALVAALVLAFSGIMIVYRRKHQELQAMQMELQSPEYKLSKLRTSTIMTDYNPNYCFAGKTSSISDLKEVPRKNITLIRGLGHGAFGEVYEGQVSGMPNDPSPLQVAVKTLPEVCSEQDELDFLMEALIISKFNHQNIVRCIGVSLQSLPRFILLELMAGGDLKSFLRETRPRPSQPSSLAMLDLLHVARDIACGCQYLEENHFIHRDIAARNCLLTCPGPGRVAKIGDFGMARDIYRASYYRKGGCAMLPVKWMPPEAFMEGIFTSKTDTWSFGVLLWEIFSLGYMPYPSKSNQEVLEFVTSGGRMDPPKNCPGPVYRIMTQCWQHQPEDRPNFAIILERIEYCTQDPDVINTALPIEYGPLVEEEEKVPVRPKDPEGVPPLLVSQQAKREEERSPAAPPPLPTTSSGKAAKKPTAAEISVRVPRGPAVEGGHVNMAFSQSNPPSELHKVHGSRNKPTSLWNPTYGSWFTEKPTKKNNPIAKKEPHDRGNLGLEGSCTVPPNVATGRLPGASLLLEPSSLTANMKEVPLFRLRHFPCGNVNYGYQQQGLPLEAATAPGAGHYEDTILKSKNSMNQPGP
baculovirus-expressed JAK2 kinase, sequence (O60674 whole entry): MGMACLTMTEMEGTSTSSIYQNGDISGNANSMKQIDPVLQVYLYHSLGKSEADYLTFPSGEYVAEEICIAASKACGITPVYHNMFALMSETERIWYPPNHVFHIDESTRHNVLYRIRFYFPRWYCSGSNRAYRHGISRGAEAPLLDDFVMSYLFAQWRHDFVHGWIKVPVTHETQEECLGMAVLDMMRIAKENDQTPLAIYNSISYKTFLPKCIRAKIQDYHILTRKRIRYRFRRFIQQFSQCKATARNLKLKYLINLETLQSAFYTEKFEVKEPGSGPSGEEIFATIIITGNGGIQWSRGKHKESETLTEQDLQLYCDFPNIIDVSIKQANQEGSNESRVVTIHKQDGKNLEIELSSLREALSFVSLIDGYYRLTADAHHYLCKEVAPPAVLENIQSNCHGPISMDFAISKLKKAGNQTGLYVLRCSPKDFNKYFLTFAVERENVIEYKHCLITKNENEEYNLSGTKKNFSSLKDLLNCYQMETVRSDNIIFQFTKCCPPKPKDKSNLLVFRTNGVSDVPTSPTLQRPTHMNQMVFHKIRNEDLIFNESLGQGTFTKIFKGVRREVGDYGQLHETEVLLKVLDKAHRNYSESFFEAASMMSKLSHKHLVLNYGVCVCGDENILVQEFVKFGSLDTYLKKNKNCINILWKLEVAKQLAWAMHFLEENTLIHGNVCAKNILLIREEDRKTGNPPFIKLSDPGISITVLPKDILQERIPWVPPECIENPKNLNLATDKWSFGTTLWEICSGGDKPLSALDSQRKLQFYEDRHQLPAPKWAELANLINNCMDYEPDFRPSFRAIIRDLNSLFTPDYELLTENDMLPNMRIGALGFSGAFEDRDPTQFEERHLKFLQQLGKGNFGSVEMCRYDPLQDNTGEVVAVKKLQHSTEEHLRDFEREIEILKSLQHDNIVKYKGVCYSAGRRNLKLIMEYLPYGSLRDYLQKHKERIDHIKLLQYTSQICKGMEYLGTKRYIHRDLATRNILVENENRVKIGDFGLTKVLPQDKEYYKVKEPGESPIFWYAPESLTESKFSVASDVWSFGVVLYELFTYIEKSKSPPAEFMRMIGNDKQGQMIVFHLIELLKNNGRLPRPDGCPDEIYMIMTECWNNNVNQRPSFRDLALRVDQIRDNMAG

On to `CC(=O)N1CCC(n2cc(-c3nc4c(N[C@H]5[C@@H](C(N)=O)[C@@H]6C=C[C@H]5C6)c(Cl)cnc4[nH]3)cn2)CC1` [Compound LXI, (1S,2S,3R,4R)-3-{2-[1-(1-Acetyl-piperidin-4-yl)-1H-pyrazol-4-yl]-6-chloro-3H-imidazo[4,5-b]pyridine-7-ylamino}-bicyclo[2.2.1]hept-5-ene-2-carboxylic acid amide], for which the IC50 in assay [1] was 0.1 to 1 µM; in assay [2], less than 0.1 µM.

For the compound `COc1cc(N(C)C)ccc1-c1nc2c(N[C@H]3[C@@H](C(N)=O)[C@@H]4C=C[C@H]3C4)c(Cl)cnc2[nH]1` [Compound XVII, (1S,2S,3R,4R)-3-[6-Chloro-2-(4-dimethylamino-2-methoxy-phenyl)-3H-imidazo[4,5-b]pyridine-7-ylamino]-bicyclo[2.2.1]hept-5-ene-2-carboxylic acid amide], the IC50 in assay [1] and in assay [2] was less than 0.1 µM in each case.

As to `CNC(=O)[C@@H]1[C@H](Nc2c(Cl)cnc3[nH]c(-c4ccc(N5CCOCC5)cc4)nc23)[C@H]2C=C[C@@H]1C2` [Compound CLXXVIII, (1S,2S,3R,4R)-3-(6-chloro-2-(4-morpholinophenyl)-3H-imidazo[4,5-b]pyridin-7-ylamino)-N-methylbicyclo[2.2.1]hept-5-ene-2-carboxamide], the IC50 in assay [1] and in assay [2] was less than 0.1 µM in each case.

For `CN1CCN(C(=O)c2cccc(-c3nc4c(N[C@H]5[C@@H](C(N)=O)[C@@H]6C=C[C@H]5C6)c(Cl)cnc4[nH]3)c2)CC1` [Compound CCXXI, (1S,2S,3R,4R)-3-(6-chloro-2-(3-(4-methylpiperazine-1-carbonyl)phenyl)-3H-imidazo[4,5-b]pyridin-7-ylamino)bicyclo[2.2.1]hept-5-ene-2-carboxamide], the figures for the IC50 in assay [1] and in assay [2] were 0.1 to 1 µM and less than 0.1 µM, respectively.

Take `CN1CCN(c2nc(Cl)c(-c3nc4c(N[C@H]5[C@@H](C(N)=O)[C@@H]6C=C[C@H]5C6)c(Cl)cnc4[nH]3)s2)CC1` [Compound CCXII, (1S,2S,3R,4R)-3-(6-chloro-2-(4-chloro-2-(4-methylpiperazin-1-yl)thiazol-5-yl)-3H-imidazo[4,5-b]pyridin-7-ylamino)bicyclo[2.2.1]hept-5-ene-2-carboxamide]: the IC50 in assay [1] and in assay [2] was less than 0.1 µM throughout.

For `C[C@H](O)CN1CCC(n2cc(-c3nc4c(N[C@H]5[C@@H](C(N)=O)[C@@H]6C=C[C@H]5C6)c(Cl)cnc4[nH]3)cn2)CC1` [Compound LIX, (1S,2S,3R,4R)-3-(6-Chloro-2-{1-[1((S)-2-hydroxypropyl)-piperidin-4-yl]-1H-pyrazol-4-yl}-3H-imidazo[4,5-b]pyridine-7-ylamino)-bicyclo[2.2.1]hept-5-ene-2-carboxylic acid amide], the IC50 in assay [1] and in assay [2] was less than 0.1 µM in each case.

On to `COc1cc(N2CCOCC2)ccc1-c1nc2c(N[C@@H]3CCCC[C@H]3NS(C)(=O)=O)c(Cl)cnc2[nH]1` [Compound LXXII, N-{(1R,2R)-2-[6-Chloro-2-(2-methoxy-4-morpholin-4-yl-phenyl)-3H-imidazo[4,5-b]pyridine-7-ylamino]-cyclohexyl}-methanesulfonamide], for which the figures for the IC50 in assay [1] and in assay [2] were less than 0.1 µM and greater than 10 µM, respectively.

Consider `NC(=O)[C@@H]1[C@H](Nc2c(Cl)cnc3[nH]c(C4CCCNC4)nc23)[C@H]2C=C[C@@H]1C2` (single isomer, unassigned) [XIII], for which the IC50 in assay [1] and in assay [2] was greater than 10 µM throughout.

As to `NC(=O)[C@@H]1[C@H](Nc2c(Cl)cnc3[nH]c(-c4ccc(O)cc4)nc23)[C@H]2C=C[C@@H]1C2` [Compound CCXXXIV, (1S,2S,3R,4R)-3-(6-chloro-2-(4-hydroxyphenyl)-3H-imidazo[4,5-b]pyridin-7-ylamino)bicyclo[2.2.1]hept-5-ene-2-carboxamide], the IC50 in assay [1] is 0.1 to 1 µM; in assay [2], less than 0.1 µM.

Consider `COc1cccc(-c2nc3c(N[C@H]4[C@@H](C(N)=O)[C@@H]5C=C[C@H]4C5)c(Cl)cnc3[nH]2)n1` [Compound CXXIV, (1S,2S,3R,4R)-3-[6-Chloro-2-(6-methoxy-pyridin-2-yl)-3H-imidazo[4,5-b]pyridin-7-ylamino]-bicyclo[2.2.1]hept-5-ene-2-carboxylic acid amide], for which the IC50 in assay [1] and in assay [2] was less than 0.1 µM throughout.

As to `NC(=O)[C@@H]1[C@H](Nc2c(Cl)cnc3[nH]c(-c4cccc(Cl)c4)nc23)[C@H]2C=C[C@@H]1C2` [Compound CXL, (1S,2S,3R,4R)-3-[6-Chloro-2-(3-chloro-phenyl)-3H-imidazo[4,5-b]pyridin-7-ylamino]-bicyclo[2.2.1]hept-5-ene-2-carboxylic acid amide], the IC50 in assay [1] is 0.1 to 1 µM; in assay [2], less than 0.1 µM.

Regarding `CN1CCN(CCOc2ccc(-c3nc4c(N[C@H]5[C@@H](C(=O)N(C)C)[C@@H]6C=C[C@H]5C6)c(Cl)cnc4[nH]3)cc2)CC1` [Compound CLXXV, (1S,2S,3R,4R)-3-(6-Chloro-2-{4-[2-(4-methyl-piperazin-1-yl)-ethoxy]-phenyl}-3H-imidazo[4,5-b]pyridin-7-ylamino)-bicyclo[2.2.1]hept-5-ene-2-carboxylic acid dimethylamide], the IC50 in assay [1] and in assay [2] was less than 0.1 µM in each case.

On to `NC(=O)[C@@H]1[C@H](Nc2c(Cl)cnc3[nH]c(-c4cccnc4N4CCOCC4)nc23)[C@H]2C=C[C@@H]1C2` [Compound XXXIV, (1S,2S,3R,4R)-3-[6-Chloro-2-(2-morpholin-4-yl-pyridin-3-yl)-3H-imidazo[4,5-b]pyridine-7-ylamino]-bicyclo[2.2.1]hept-5-ene-2-carboxylic acid amide], for which the IC50 is 1 to 10 µM in assay [1] and greater than 10 µM in assay [2].

For the compound `CN1CCN(c2ncc(-c3nc4c(N[C@H]5[C@@H](C(N)=O)[C@@H]6C=C[C@H]5C6)c(Cl)cnc4[nH]3)s2)CC1` [Compound CCXI, (1S,2S,3R,4R)-3-(6-chloro-2-(2-(4-methylpiperazin-1-yl)thiazol-5-yl)-3H-imidazo[4,5-b]pyridin-7-ylamino)bicyclo[2.2.1]hept-5-ene-2-carboxamide], the IC50 in assay [1] and in assay [2] was less than 0.1 µM each time.

Consider `CN1CCN(CCOc2ccc(-c3nc4c(N[C@H]5[C@@H](C(N)=O)[C@@H]6C=C[C@H]5C6)c(Cl)cnc4[nH]3)cc2)CC1` [Compound CCL, (1S,2S,3R,4R)-3-(6-chloro-2-(4-(2-(4-methylpiperazin-1-yl)ethoxy)phenyl)-3H-imidazo[4,5-b]pyridin-7-ylamino)bicyclo[2.2.1]hept-5-ene-2-carboxamide], for which the IC50 in assay [1] and in assay [2] was less than 0.1 µM in each case.

As to `CN1CCN(C(=O)COc2cccc(-c3nc4c(N[C@H]5[C@@H](C(N)=O)[C@@H]6C=C[C@H]5C6)c(Cl)cnc4[nH]3)c2)CC1` [Compound CCXLIII, (1S,2S,3R,4R)-3-(6-chloro-2-(3-(2-(4-methylpiperazin-1-yl)-2-oxoethoxy)phenyl)-3H-imidazo[4,5-b]pyridine-7-ylamino)pyridin[2.2.1]hept-5-ene-2-carboxamide], the IC50 in assay [1] and in assay [2] was less than 0.1 µM throughout.

Regarding `Cc1nc(C2CCN(CC(N)=O)CC2)sc1-c1nc2c(N[C@H]3[C@@H](C(N)=O)[C@@H]4C=C[C@H]3C4)c(Cl)cnc2[nH]1` [Compound LXV, (1S,2S,3R,4R)-3-{2-[2-(1-Carbamoylmethyl-piperidin-4-yl)-4-methyljj-thiazol-5-yl]-6-chloro-3H-imidazo[4,5-b]pyridine-7-ylamino}-bicyclo[2.2.1]hept-5-ene-2-carboxylic acid amide], the IC50 in assay [1] and in assay [2] was less than 0.1 µM each time.

As to `NC(=O)COc1ccc(-c2nc3c(N[C@H]4[C@@H](C(N)=O)[C@@H]5C=C[C@H]4C5)c(Cl)cnc3[nH]2)cc1` [Compound CCXL, (1S,2S,3R,4R)-3-(2-(4-(2-amino-2-oxoethoxy)phenyl)-6-chloro-3H-imidazo[4,5-b]pyridin-7-ylamino)bicyclo[2.2.1]hept-5-ene-2-carboxamide], the IC50 in assay [1] is 0.1 to 1 µM; in assay [2], less than 0.1 µM.

On to `NC(=O)[C@@H]1[C@H](Nc2c(Cl)cnc3[nH]c(-c4cncs4)nc23)[C@H]2C=C[C@@H]1C2` [Compound CCVII, (1S,2S,3R,4R)-3-(6-chloro-2-(thiazol-5-yl)-3H-imidazo[4,5-b]pyridin-7-ylamino)bicyclo[2.2.1]hept-5-ene-2-carboxamide], for which the IC50 is 0.1 to 1 µM in assay [1] and less than 0.1 µM in assay [2].

For the compound `NC(=O)[C@@H]1[C@H](Nc2c(Cl)cnc3[nH]c(-c4ccc(N5CCOCC5)cc4)nc23)[C@H]2CC[C@@H]1O2` [Compound CCIV, (1S,2R,3S,4R)-3-(6-chloro-2-(4-morpholinophenyl)-3H-imidazo[4,5-b]pyridin-7-ylamino)-7-oxabicyclo[2.2.1]heptane-2-carboxamide], the figures for the IC50 in assay [1] and in assay [2] were 1 to 10 µM and less than 0.1 µM, respectively.

Take `COc1cc(N2CCOCC2)ccc1-c1nc2c(N[C@H]3[C@@H](C(N)=O)[C@@H]4CC[C@H]3O4)c(Cl)cnc2[nH]1` [Compound CCVI, (1S,2R,3S,4R)-3-(6-chloro-2-(2-methoxy-4-morpholinophenyl)-3H-imidazo[4,5-b]pyridin-7-ylamino)-7-oxabicyclo[2.2.1]heptane-2-carboxamide]: the values for the IC50 in assay [1] and in assay [2] were 0.1 to 1 µM and 1 to 10 µM, respectively.

As to `O=C(NC1CC1)[C@@H]1[C@H](Nc2c(Cl)cnc3[nH]c(-c4sc(N5CCCC5)nc4Cl)nc23)[C@H]2C=C[C@@H]1C2` [Compound CLXXII, (1S,2S,3R,4R)-3-[6-Chloro-2-(4-chloro-2-pyrrolidin-1-yl-thiazol-5-yl)-3H-imidazo[4,5-b]pyridin-7-ylamino]-bicyclo[2.2.1]hept-5-ene-2-carboxylic acid cyclopropylamide], the values for the IC50 in assay [1] and in assay [2] were less than 0.1 µM and 0.1 to 1 µM, respectively.
